One series addresses T1, NK1 receptor (Homo sapiens, UniProt P25103).
T1 construct: Measurement of NK1 Receptor Mediated Intracellular [Ca^2+]; Mobilization in U251 MG Cells Using FLIPR; endogenous in cells; host or cells: U251 MG cells
Put plainly: NK1 receptor mediated intracellular [Ca2+] mobilization in U251 MG cells using FLIPR. The class given is cell-based. As to conditions: antagonist potency against Substance P (EC80), normalized to 100 nM Aprepitant, read-out: U251MG (FLIPR pIC50) (converted). The essentials: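 Fluo-4-loaded U251 MG cells were preincubated with compound (0.5% DMSO final), with any agonist effect read for 5 min, then 10 min more at 37 °C before Substance P at EC80. Peak FLIPR fluorescence change was read, and IC50 came from a four-parameter fit as the midpoint between fitted top and bottom.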

The nature of series [1]: Hepatic intrinsic clearance following incubation in human liver microsomes. In kind it is in vitro ADME. As to conditions: NADPH regenerating system, 0-30 min, 37 °C. The procedure:
Hepatic Extraction Ratio from Hepatic Intrinsic Clearance Following Incubation in Human Liver Microsomes
The general procedure consists of an automated incubation system and LC-MS/MS analysis with human liver microsomes. Human liver microsomes are thawed rapidly in a waterbath at 37° C. and kept on ice until use. The human liver microsomes are diluted with 50 mM potassium phosphate buffer pH 7.4 to a protein concentration of 0.55 mg/mL. Test compounds and positive controls (Verapamil and Dextromethorphan, positive controls for CYP3A4 for CYP2D6 isoforms, respectively) are dissolved in methanol (or other appropriate solvent, if necessary) in order to obtain a 5 mM solution which is further diluted to the concentration of 50 μM. The stock solutions are prepared immediately before the test.
5 μL of 50 μM test compounds and controls are added to 445 μL-of the 0.55 mg/mL microsomes solution and the incubation mixture are pre-warmed at 37° C. for 5 minutes.
The incubation reactions are initiated by adding 50 μL of pre-warmed NADPH regenerating system to the incubation mixtures. 50 μL-aliquots will be taken from the incubation mixtures at: 0, 3, 6, 9, 15 and 30 minutes and the reactions are stopped by adding 100 μL of ACN containing Rolipram, used as generic Internal Standard (1S). Samples are then diluted with 120 μL of Milli-Q water and centrifuged at 3000 rpm for 10 minutes, prior the LC-MS/MS analysis.
The integrated peak areas for test compounds at the selected time points are divided by the respective peak areas of the IS and the percent of parent remaining is calculated by normalizing the peak area ratio of parent to IS at 0 min. Observed rate constant (kobs) for parent degradation is calculated by determining the slope of the line of the graph of the natural log of percentage parent remaining versus time of incubation. From the rate of depletion (min-1) and volume of the incubation (mL), clearance is estimated. This is scaled for the protein in the incubation relative to that in the intact liver, for all species (mL/min/g liver).
Values for the Human in vitro Clint are expressed as mL/min/g liver.
Assuming a liver weight of 25.7 g/kg and a liver blood flow of 20.7 mL/min/kg, the hepatic extraction ratio, Eh, can be derived from the Human in vitro Clint:
E.g. a Human in vitro Clint of 2.4 mL/min/g liver corresponds to a hepatic extraction ratio of 75%.
Some compounds of the present invention were tested according to example 121.
For orientation: Microsomes from liver hold many membrane-bound enzymes, among them those of drug oxidation.

The structures appear in SMILES notation.

T1 sequence (P25103 whole entry): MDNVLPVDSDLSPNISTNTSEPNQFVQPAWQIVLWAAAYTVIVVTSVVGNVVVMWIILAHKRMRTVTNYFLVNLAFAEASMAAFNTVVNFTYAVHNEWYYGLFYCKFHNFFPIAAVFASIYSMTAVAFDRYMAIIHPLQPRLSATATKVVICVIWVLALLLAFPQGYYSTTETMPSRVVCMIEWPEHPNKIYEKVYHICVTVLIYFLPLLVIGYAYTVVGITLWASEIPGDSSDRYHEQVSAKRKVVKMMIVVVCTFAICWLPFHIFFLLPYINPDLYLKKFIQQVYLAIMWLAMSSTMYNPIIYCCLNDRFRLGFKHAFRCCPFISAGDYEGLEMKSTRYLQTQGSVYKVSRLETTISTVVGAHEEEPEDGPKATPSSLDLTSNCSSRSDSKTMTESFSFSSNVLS

As to `Cc1ccccc1[C@H]1[C@@H]2CC(CCO)(CCO)C(=O)N2CCN1C(=O)N(C)Cc1cc(F)cc(C(F)(F)F)c1` [Compound 76, (1S,8aS)-N-(3-fluoro-5-(trifluoromethyl)benzyl)-7,7-bis(2-hydroxyethyl)-N-methyl-6-oxo-1-o-tolylhexahydropyrrolo[1,2-a]pyrazine-2(1H)-carboxamide], the IC50 on NK1 receptor is 0.148 nM. Also, the “Human in vitro Clint (mL/min/g liver)” value in series [1] was 12 mL/min/g liver.
The corresponding values for `Cc1ccccc1C1C2CC(CO)C(=O)N2CCN1C(=O)N(C)[C@H](C)c1cc(C(F)(F)F)cc(C(F)(F)F)c1` (single isomer, unassigned) [Compound 56] are 0.112 nM and 0.34 mL/min/g liver.
For `CCC(c1cc(C(F)(F)F)cc(C(F)(F)F)c1)N(C)C(=O)N1CCN2C(=O)C(CCO)(CCO)C[C@H]2[C@@H]1c1ccccc1C` (stereo partly drawn) [Compound 83, (1S,8aS)-N-(1-(3,5-bis(trifluoromethyl)phenyl)propyl)-7,7-bis(2-hydroxyethyl)-N-methyl-6-oxo-1-o-tolylhexahydropyrrolo[1,2-a]pyrazine-2(1H)-carboxamide] the same measures were 0.132 nM and 7.8 mL/min/g liver.
The corresponding values for `Cc1ccccc1[C@H]1[C@@H]2CC(CCO)(CCO)C(=O)N2CCN1C(=O)N(C)[C@H](C)c1cccc(C(F)(F)F)c1` [Compound 88, (1S,8aS)-7,7-bis(2-hydroxyethyl)-N-methyl-6-oxo-1-o-tolyl-N-((R)-1-(3-(trifluoromethyl)phenyl)ethyl)hexa hydropyrrolo[1,2-a]pyrazine-2(1H)-carboxamide] are 0.0631 nM and 13 mL/min/g liver.
With `Cc1ccccc1[C@H]1[C@@H]2CC(CCO)(CCO)C(=O)N2CCN1C(=O)N(C)[C@H](CO)c1cc(C(F)(F)F)cc(C(F)(F)F)c1` [Compound 86, (1S,8aS)-N-((S)-1-(3,5-bis(trifluoromethyl)phenyl)-2-hydroxyethyl)-7,7-bis(2-hydroxyethyl)-N-methyl-6-oxo-1-o-tolylhexahydropyrrolo[1,2-a]pyrazine-2(1H)-carboxamide], the IC50 at NK1 receptor was 0.129 nM. For the same compound, the “Human in vitro Clint (mL/min/g liver)” value in series [1] is reported as 2.8 mL/min/g liver.
On to `Cc1ccccc1[C@H]1[C@@H]2CC(CCO)(CCO)C(=O)N2CCN1C(=O)N(C)[C@H](C)c1cc(C(F)F)cc(C(F)(F)F)c1` [Compound 98, (1S,8aS)-N-((R)-1-(3-(difluoromethyl)-5-(trifluoromethyl)phenyl)ethyl)-7,7-bis(2-hydroxyethyl)-N-methyl-6-oxo-1-o-tolylhexahydropyrrolo[1,2-a]pyrazine-2(1H)-carboxamide], for which the IC50 on NK1 receptor was 0.117 nM. In series [1], the “Human in vitro Clint (mL/min/g liver)” value was found to be 4.0 mL/min/g liver.
Regarding `Cc1cc([C@@H](C)N(C)C(=O)N2CCN3C(=O)C(CO)(CO)C[C@H]3[C@@H]2c2ccccc2C)cc(C(F)(F)F)c1` [Compound 103, (1S,8aS)-7,7-bis(hydroxymethyl)-N-methyl-N-((R)-1-(3-methyl-5-(trifluoromethyl)phenyl)ethyl)-6-oxo-1-o-tolylhexahydropyrrolo[1,2-a]pyrazine-2(1H)-carboxamide], on NK1 receptor, the IC50 is 0.0794 nM. The “Human in vitro Clint (mL/min/g liver)” value in series [1] is listed as 4.8 mL/min/g liver.
The corresponding values for `Cc1ccccc1C1C2CC(CN3CCOCC3)C(=O)N2CCN1C(=O)N(C)Cc1cc(C(F)(F)F)cc(C(F)(F)F)c1` (single isomer, unassigned) [Compound 29, N-{[3,5-bis(trifluoromethyl)phenyl]methyl}-N-methyl-1-(2-methylphenyl)-7-(morpholin-4-ylmethyl)-6-oxo-octahydropyrrolo[1,2-a]piperazine-2-carboxamide] are 0.398 nM and 6.4 mL/min/g liver.
The corresponding values for `Cc1ccccc1C1C2CC(CCO)(CCO)C(=O)N2CCN1C(=O)N(C)Cc1cc(C(F)(F)F)cc(C(F)(F)F)c1` (single isomer, unassigned) [Compound 43, N-{[3,5-bis(trifluoromethyl)phenyl]methyl}-7,7-bis(2-hydroxyethyl)-N-methyl-1-(2-methylphenyl)-6-oxo-octahydropyrrolo[1,2-a]piperazine-2-carboxamide] are 0.525 nM and 3.7 mL/min/g liver.
The corresponding values for `Cc1ccccc1C1C2CC(CO)CN2CCN1C(=O)N(C)Cc1cc(C(F)(F)F)cc(C(F)(F)F)c1` (single isomer, unassigned) [Compound 49, N-{[3,5-bis(trifluoromethyl)phenyl]methyl}-7-(hydroxymethyl)-N-methyl-1-(2-methylphenyl)-octahydropyrrolo[1,2-a]piperazine-2-carboxamide] are 0.347 nM and 1.9 mL/min/g liver.
On to `Cc1ccccc1[C@H]1[C@@H]2CC(CCO)(CCO)C(=O)N2CCN1C(=O)N(C)[C@H](CO)c1cccc(C(F)(F)F)c1` [Compound 96, (1S,8aS)-N-((S)-2-hydroxy-1-(3-(trifluoromethyl)phenyl)ethyl)-7,7-bis(2-hydroxyethyl)-N-methyl-6-oxo-1-o-tolylhexahydropyrrolo[1,2-a]pyrazine-2(1H)-carboxamide], for which the IC50 on NK1 receptor is 0.0794 nM. The “Human in vitro Clint (mL/min/g liver)” value in series [1] turned out to be 4.8 mL/min/g liver.
For `Cc1ccccc1[C@H]1[C@@H]2CC3(CCOCC3)C(=O)N2CCN1C(=O)N(C)[C@H](C)c1cc(C(F)(F)F)cc(C(F)(F)F)c1` [Compound 100, (1′S,8a′S)-N-((R)-1-(3,5-bis(trifluoromethyl)phenyl)ethyl)-N-methyl-6′-oxo-1′-o-tolyloctahydro-1′H-spiro[pyran-4,7′-pyrrolo[1,2-a]pyrazine]-2′(6′H)-carboxamide], the IC50 at NK1 receptor is 0.126 nM. Besides, the “Human in vitro Clint (mL/min/g liver)” value in series [1] is given as 3.0 mL/min/g liver.
As to `Cc1ccccc1[C@H]1[C@H]2CCC(=O)N2CCN1C(=O)N(C)[C@H](C)c1cc(C(F)(F)F)cc(C(F)(F)F)c1` (single isomer, unassigned) [Compound 75], the IC50 on NK1 receptor was 0.0316 nM. Besides, the “Human in vitro Clint (mL/min/g liver)” value in series [1] came to 32 mL/min/g liver.
As for `Cc1ccccc1[C@H]1[C@@H]2CC(CO)(CO)C(=O)N2CCN1C(=O)N(C)[C@H](C)c1cc(Cl)cc(C(F)(F)F)c1` [Compound 108, (1S,8aS)-N-((R)-1-(3-chloro-5-(trifluoromethyl)phenyl)ethyl)-7,7-bis(hydroxymethyl)-N-methyl-6-oxo-1-o-tolylhexahydropyrrolo[1,2-a]pyrazine-2(1H)-carboxamide], the IC50 on NK1 receptor was 0.0316 nM. Also, the “Human in vitro Clint (mL/min/g liver)” value in series [1] is 4.3 mL/min/g liver.
For `Cc1cc([C@H](C)N(C)C(=O)N2CCN3C(=O)C(CCO)(CCO)C[C@H]3[C@@H]2c2ccccc2C)cc(C(F)(F)F)c1` [Compound 84, (1S,8aS)-7,7-bis(2-hydroxyethyl)-N-methyl-N-((S)-1-(3-methyl-5-(trifluoromethyl)phenyl)ethyl)-6-oxo-1-o-tolylhexahydropyrrolo[1,2-a]pyrazine-2(1H)-carboxamide], the IC50 on NK1 receptor is 0.0631 nM. Also, in series [1], the “Human in vitro Clint (mL/min/g liver)” value is listed as 8.5 mL/min/g liver.

The record behind these values is patent US9181259B2 (LEO PHARMA A/S, priority 2012, dated 2015).
